Measured values reported in patent US10399933B2, “Inhibitors of indoleamine-2,3-dioxygenase for the treatment of cancer” (BRISTOL-MYERS SQUIBB COMPANY, priority 2015, dated 2019).

The molecules below were run against human IDO1 (Homo sapiens, UniProt P14902) (assay: Human IDO-1 inhibitory activity in HEK cells (human IDO1/HEK293 cellular assay)). Settings: HEK human IDO-1 cellular assay; 500 nM reference standard = 100% inhibition, DMSO = 0%.
Type: cell-based
Parameters: expressed in transfected cells
Protocol: They were cultured in medium (DMEM with 10% FBS) containing 1 mg/ml G418 for two weeks.
The human IDO1/HEK293 cells were seeded at 10,000 cells per 50 μL per well with RPMI/phenol red free media contains 10% FBS in a 384-well black wall clear bottom tissue culture plate (Matrix Technologies LLC) 100 nL of certain concentration of compound was then added to each well using ECHO liquid handling systems. The cells were incubated for 20 hours in 37° C. incubator with 5% CO2.
The compound treatments were stopped by adding trichloroacetic acid (Sigma-Aldrich) to a final concentration at 0.2%. The cell plate was further incubated at 50° C. for 30 minute. The equal volume supernatant (20 μL) and 0.2% (w/v) Ehrlich reagent (4-dimethylaminobenzaldehyde, Sigma-Aldrich) in glacial acetic acid were mixed in a new clear bottom 384-well plate. This plate was then incubated at room temperature for 30 minute. The absorbance at 490 nm was measured on Envision plate reader.

Sequence of human IDO1 (P14902 whole entry): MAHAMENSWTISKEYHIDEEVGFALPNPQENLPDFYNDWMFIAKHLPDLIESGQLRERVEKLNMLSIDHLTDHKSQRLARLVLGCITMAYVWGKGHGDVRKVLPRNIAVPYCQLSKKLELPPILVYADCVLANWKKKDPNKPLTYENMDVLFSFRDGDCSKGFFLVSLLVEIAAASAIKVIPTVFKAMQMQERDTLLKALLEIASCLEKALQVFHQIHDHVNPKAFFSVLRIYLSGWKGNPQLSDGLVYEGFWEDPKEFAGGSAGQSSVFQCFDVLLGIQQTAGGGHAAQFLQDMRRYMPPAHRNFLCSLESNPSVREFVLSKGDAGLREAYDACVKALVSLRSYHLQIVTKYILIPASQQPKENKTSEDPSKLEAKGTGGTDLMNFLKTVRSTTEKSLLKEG

Row | Molecule | IC50 [nM]
1 | Cc1ccc(CC(=O)Nc2cc(C(C)CC(=O)O)ccc2N(CC(C)C)C2CCOCC2)cc1 (single isomer, unassigned) [Example 967, 3-(4-(Isobutyl(tetrahydro-2H-pyran-4-yl)amino)-3-(2-(p-tolyl)acetamido)phenyl)butanoic Acid] | < 50
2 | CCC(CC(=O)O)c1cc(F)c(N(CC(C)C)CC(C)C)c(NC(=O)Cc2ccc(Cl)cc2F)c1 (single isomer, unassigned) [Example 1092 E1] | < 5
3 | CCC(CC(=O)O)c1cc(F)c(N(CC(C)C)CC(C)C)c(NC(=O)Cc2ccc(Cl)cc2F)c1 (single isomer, unassigned) [Example 1092 E2] | < 5
4 | CCC(CC(=O)O)c1ccc(N(CCC(C)C)C2CCCCC2)c(NC(=O)Cc2ccc(C)cc2)c1 (single isomer, unassigned) [Example 1099 E1] | < 50
5 | CCC(CC(=O)O)c1ccc(N(CCC(C)C)C2CCCCC2)c(NC(=O)Cc2ccc(C)cc2)c1 (single isomer, unassigned) [Example 1099 E2] | < 50
6 | CCC(CC(=O)O)c1cc(F)c(N(CC(C)C)C2CCCCC2)c(NC(=O)Cc2ccc(C)cc2)c1 (single isomer, unassigned) [Example 1101 E1] | < 5
7 | CCC(CC(=O)O)c1cc(F)c(N(CC(C)C)C2CCCCC2)c(NC(=O)Cc2ccc(C)cc2)c1 (single isomer, unassigned) [Example 1101 E2] | < 5
8 | CCC(CC(=O)O)c1ccc(N(CC(C)C)CC(C)C)c(NC(=O)Cc2ccc(C)cc2)c1 (single isomer, unassigned) [Example 1103 E2, 3-(4-(Diisobutylamino)-3-(2-(p-tolyl)acetamido)phenyl)pentanoic Acid] | < 5
9 | CCOc1ccc(NC(=O)Nc2cc(C(COC)CC(=O)O)cc(F)c2N(CC(C)C)CC(C)C)cc1 (single isomer, unassigned) [Example 1185, 3-(4-(diisobutylamino)-3-(3-(4-ethoxyphenyl)ureido)-5-fluorophenyl)-4-methoxybutanoic acid] | < 5
10 | COCC(CC(=O)O)c1cc(F)c(N(CC(C)C)CC(C)C)c(NC(=O)Nc2ccc(OC(F)(F)F)cc2)c1 (single isomer, unassigned) [Example 1197, 3-(4-(Diisobutylamino)-3-fluoro-5-(3-(4-(trifluoromethoxy)phenyl)ureido)phenyl)-4-methoxybutanoic Acid] | < 50
11 | COCC(CC(=O)O)c1ccc(N(CC(C)C)C2CCCCC2)c(NC(=O)Cc2cc(C)on2)c1 (single isomer, unassigned) [Example 1238, 3-(4-(Cyclohexyl(isobutyl)amino)-3-(2-(5-methylisoxazol-3-yl)acetamido)phenyl)-4-methoxybutanoic Acid] | > 50
12 | CCN(c1ccc(C(COC(C)C)CC(=O)O)cc1Nc1ccc(F)cc1)C1CCS(=O)(=O)CC1 (stereo not drawn) [Example 316] | < 50
13 | CCN(c1ccc(C(COC(C)C)CC(=O)O)cc1Nc1ccc(F)cc1)C1CCS(=O)(=O)CC1 (stereo not drawn) [Example 336] | < 50
14 | CCC(CC(=O)O)c1ccc(N2CCCC2C(C)(C)F)c(NC(=O)Nc2ccc(OC)cc2F)c1 [Example 787, 3-(3-(3-(2-fluoro-4-methoxyphenyl)ureido)-4-((S)-2-(2-(fluoropropan-2-yl)pyrrolidin-1-yl)phenyl)pentanoic acid] | > 50
15 | (+/−)-Methyl 3-(4-(isobutyl((1 r,4r)-4-methoxycyclohexyl)amino)-3-(3-(p-tolyl)ureido)phenyl)-4-methoxybutanoate [Example 1005] | > 50
